Reference: patent publication US10934298B2, “Substituted pyrazolo[1,5-a]pyrimidines for the treatment of medical disorders” (BIAL—BioTech Investments, Inc., priority 2016, dated 2021)

Biological target: T1, glucocerebrosidase (Gcase) (Homo sapiens, UniProt P04062)
T1 construct: micellar solution containing 10 nM GCase and 100 nM saposin C
T1 sequence (P04062 40-536): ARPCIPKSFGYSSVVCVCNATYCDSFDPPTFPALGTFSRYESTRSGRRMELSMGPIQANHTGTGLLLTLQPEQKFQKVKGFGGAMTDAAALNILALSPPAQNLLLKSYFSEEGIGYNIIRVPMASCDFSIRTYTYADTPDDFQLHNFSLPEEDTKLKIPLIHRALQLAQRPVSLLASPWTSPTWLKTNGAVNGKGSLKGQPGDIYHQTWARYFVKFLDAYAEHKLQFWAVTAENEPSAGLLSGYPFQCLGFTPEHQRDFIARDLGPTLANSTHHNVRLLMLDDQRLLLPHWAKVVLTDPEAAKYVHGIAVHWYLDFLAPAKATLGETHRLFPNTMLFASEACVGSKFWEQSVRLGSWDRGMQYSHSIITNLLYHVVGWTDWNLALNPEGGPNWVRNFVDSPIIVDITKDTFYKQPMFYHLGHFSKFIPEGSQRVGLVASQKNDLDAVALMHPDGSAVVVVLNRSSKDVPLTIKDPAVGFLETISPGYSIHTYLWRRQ
Assay: Glucocerebrosidase (Gcase) activation assay with 4-methylumbelliferyl-beta-D-glucopyranoside substrate, saposin C and phosphatidylserine/triton micelles, fluorescence readout
Format: biochemical
Experimental: The ability of exemplary compounds to activate glucocerebrosidase (Gcase) was measured.
A 484 μL aliquot of a 1.0 mg/mL solution of phosphatidylserine (PS) (Sigma P7769) in chloroform was evaporated under a stream of nitrogen for 1 hour. The lipid film was dissolved over 4 minutes of vigorous vortexing in 40 mL of 176 mM K2HPO4/50 mM citric acid (pH 4.7) containing 7.5 μL of triton X-100, resulting in a mixed micellar preparation with a composition of 0.32 mM triton and 0.37 mol % PS. 4-Methylumbelliferyl-beta-D-glucopyranoside (ACROS-337025000) was dissolved in the micellar solution to a final concentration of 2 mM for use as the reaction substrate.
Test compounds were diluted to the desired concentrations with dimethylsulfoxide (DMSO) from 10 mM stocks, and 0.41 μL of the DMSO compound mixture was added to 100 μL of micellar solution containing 10 nM GCase and 100 nM saposin C (Enzo ALX-201-262-C050). Pre-incubation was allowed to occur for 30 minutes at room temperature, after which the reaction was initiated by combining 25 μL of substrate solution with 25 μL of compound/GCase/saposin mixture. The reaction proceeded for 15 minutes at room temperature and was stopped by adding 150 μL of 1M glycine, pH 12.5. The endpoint of the reaction was monitored by measuring fluorescence intensity (excitation: 365 nm; emission: 440 nm) on a SpectraMax i3 instrument (Molecular Devices). Test compounds were screened at 1.0 and 0.1 μM final concentration, and subsequent 8-point dose response curves were obtained using 3-fold dilutions from a maximum final concentration of 5 μM.

Structure (SMILES) | Percent Gcase Activation, 0.1 μM Test Compound (0.1 μM test compound, Table 3A) | Percent Gcase Activation, 1 μM Test Compound (1 μM test compound, Table 3A) | Percent Gcase Activation, 0.1 μM Test Compound (0.1 μM test compound) | Percent Gcase Activation, 1 μM Test Compound (1 μM test compound) | other results
Cc1cc(C)n2ncc(C(=O)NC(C)(C)C3CC4(CCC4)C3)c2n1 [III-13] | *** (greater than 20% Gcase activation) | +++ (Gcase activation greater than 60%) |  |  | 
Cc1cc(-c2cccc(F)c2C#N)nc2c(C(=O)N[C@@H](C)C3CC3)cnn12 [III-398] |  |  | *** (greater than 20% Gcase activation) | +++ (Gcase activation greater than 60%) | 
Cc1cc(N2CCCN(C(C)C)C2=O)nc2c(C(=O)NC(C3CC3)C(F)(F)F)cnn12 (stereo not shown) [III-257] |  |  |  |  | Percent Gcase Activation, 0.1 μM Test Compound (test compound at 0.1 μM): ** (Gcase activation in the range of 10% up to 20%); Percent Gcase Activation, 1 μM Test Compound (test compound at 1.0 μM): ++ (Gcase activation in the range of 30% up to 60%)
C#CC(C)(C)NC(=O)c1cnn2c(C)cc(-c3cccc(OC)c3)nc12 [III-69] | *** (greater than 20% Gcase activation) | +++ (Gcase activation greater than 60%) |  |  | 
Cc1cc(N2CCN(CC(F)(F)F)C2=O)nc2c(C(=O)NC(C3CC3)C(F)(F)F)cnn12 (stereo not shown) [III-233] |  |  |  |  | Percent Gcase Activation, 0.1 μM Test Compound (test compound at 0.1 μM): ** (Gcase activation in the range of 10% up to 20%); Percent Gcase Activation, 1 μM Test Compound (test compound at 1.0 μM): +++ (Gcase activation greater than 60%)
Cc1cc(-c2cccc3c2ncn3C)nc2c(C(=O)NC(C3CC3)C(F)(F)F)cnn12 (stereo not shown) [III-310] |  |  | ** (Gcase activation in the range of 10% up to 20%) | +++ (Gcase activation greater than 60%) | 
Cc1ncc(F)cc1-c1cc(C)n2ncc(C(=O)N[C@@H](C3CC3)C(F)(F)F)c2n1 [III-379] |  |  | ** (Gcase activation in the range of 10% up to 20%) | +++ (Gcase activation greater than 60%) | 
COc1cncc(-c2cc(C)n3ncc(C(=O)N[C@@H](C4CC4)C(F)(F)F)c3n2)c1 [III-267] |  |  |  |  | Percent Gcase Activation, 0.1 μM Test Compound (test compound at 0.1 μM): *** (greater than 20% Gcase activation); Percent Gcase Activation, 1 μM Test Compound (test compound at 1.0 μM): +++ (Gcase activation greater than 60%)
Cc1cc(-c2cc(C)n3ncc(C(=O)N[C@@H](C)C4CC4)c3n2)sn1 [III-346] |  |  | ** (Gcase activation in the range of 10% up to 20%) | +++ (Gcase activation greater than 60%) | 
Cc1cc(N2CCN(C(C)C)C2=O)nc2c(C(=O)NC(C)(C)C)cnn12 [III-232] |  |  |  |  | Percent Gcase Activation, 0.1 μM Test Compound (test compound at 0.1 μM): * (less than 10% Gcase activation); Percent Gcase Activation, 1 μM Test Compound (test compound at 1.0 μM): + (less than 30% Gcase activation)
Cc1ccc(-c2cc(C)n3ncc(C(=O)NC(C)C(F)(F)F)c3n2)cn1 (stereo not shown) [III-283] |  |  | * (less than 10% Gcase activation) | ++ (Gcase activation in the range of 30% up to 60%) | 
Cc1cc(-c2ccc(F)cc2)nc2c(C(=O)N[C@@H](C)C3CC3)c(Cl)nn12 [III-32] | ** (Gcase activation in the range of 10% up to 20%) | +++ (Gcase activation greater than 60%) |  |  | 
Cc1cc(-c2ccccn2)n2ncc(C(=O)NC(C)(C)C3CC3)c2n1 [III-17] | * (less than 10% Gcase activation) | + (less than 30% Gcase activation) |  |  | 
Cc1cc(-c2cccc(F)c2)nc2c(C(=O)N[C@@H](C)C(F)(F)F)cnn12 [III-362] |  |  | *** (greater than 20% Gcase activation) | +++ (Gcase activation greater than 60%) | 
Cc1cc(-c2ccc(F)nc2)nc2c(C(=O)NC(C3CC3)C(F)(F)F)cnn12 (stereo not shown) [III-84] | *** (greater than 20% Gcase activation) | +++ (Gcase activation greater than 60%) |  |  | 
COCc1cc(-c2ccc(F)cc2)nc2c(C(=O)N[C@@H](C)C3CC3)cnn12 [III-46] | * (less than 10% Gcase activation) | ++ (Gcase activation in the range of 30% up to 60%) |  |  | 
Cc1cc(-c2noc(C(C)C)n2)nc2c(C(=O)N[C@@H](C)C(F)(F)F)cnn12 [III-401] |  |  | *** (greater than 20% Gcase activation) | +++ (Gcase activation greater than 60%) | 
